Laboratory results from the supplement of paper PMC3770661.
Where a name gives a salt, the structure may show the parent alone. ± gives the uncertainty stated by the source.

Tested on: HepG2 (L1.3 5'UTR promoter firefly luciferase reporter)
Assay: L1 promoter activity (FLuc/RLuc) relative to DMSO vehicle control (% of control); higher = stronger L1 promoter activation
Method: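 HepG2 cells in 96-well plates were cotransfected with pGL4.11-L1.3 5'UTR (firefly luciferase driven by the human L1.3 5'UTR promoter) and pGL4.74 (HSV-TK Renilla luciferase internal control), then treated with compound for 6 or 24 h. FLuc/RLuc ratio was normalised to the DMSO vehicle control (% of control); concentrations where RLuc fell below 50% of control were excluded (N.D.). Mean of at least two independent experiments in duplicate or quadruplicate.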

[1] = concentration (uM unless unit written): 2500, treatment time: 6 h
[2] = concentration (uM unless unit written): 2500, treatment time: 24 h
[3] = concentration (uM unless unit written): 5, treatment time: 6 h
[4] = concentration (uM unless unit written): 10, treatment time: 6 h
[5] = concentration (uM unless unit written): 10, treatment time: 24 h
[6] = concentration (uM unless unit written): 500, treatment time: 6 h
[7] = concentration (uM unless unit written): 500, treatment time: 24 h
[8] = concentration (uM unless unit written): 1000, treatment time: 6 h
[9] = concentration (uM unless unit written): 1000, treatment time: 24 h
[10] = concentration (uM unless unit written): 100, treatment time: 6 h
[11] = concentration (uM unless unit written): 100, treatment time: 24 h
[12] = concentration (uM unless unit written): 250, treatment time: 6 h
[13] = concentration (uM unless unit written): 250, treatment time: 24 h
[14] = concentration (uM unless unit written): 50, treatment time: 6 h
[15] = concentration (uM unless unit written): 50, treatment time: 24 h
[16] = concentration (uM unless unit written): 200, treatment time: 6 h

OC(Cn1cncn1)(Cn1cncn1)c1ccc(F)cc1F [Fluconazole] was tested, and the L1 promoter activity (concentration (uM unless unit written): 1250, treatment time: 6 h) was 108 ± 11, the L1 promoter activity (concentration (uM unless unit written): 1250, treatment time: 24 h) was 99.5 ± 7.4 and the L1 promoter activity [1] was 99.2 ± 6.7. The L1 promoter activity [2] was 92.7 ± 13.
O=c1[nH]cc(F)c(=O)[nH]1 [Fluorouracil] was tested, and the L1 promoter activity [3] was 110 ± 30, the L1 promoter activity (concentration (uM unless unit written): 5, treatment time: 24 h) was 107 ± 18 and the L1 promoter activity [4] was 109 ± 22. The L1 promoter activity [5] was 83.2 ± 4.1, the L1 promoter activity (concentration (uM unless unit written): 20, treatment time: 6 h) was 94.5 ± 11 and the L1 promoter activity (concentration (uM unless unit written): 20, treatment time: 24 h) was 73.4 ± 11.
CCOC(=O)CC(O)C(=O)OCC (stereo unspecified) [Diethyl malate] was tested, and the L1 promoter activity (concentration (uM unless unit written): 375, treatment time: 6 h) was 127 ± 13 and the L1 promoter activity (concentration (uM unless unit written): 750, treatment time: 6 h) was 159 ± 18.
With CC(C)=CC(=O)C=C(C)C [Phorone] the L1 promoter activity [6] was 131 ± 16, the L1 promoter activity [7] was 118 ± 21 and the L1 promoter activity [8] was 131 ± 6.7. The L1 promoter activity [9] was 118 ± 23.
CNc1ccc2oc(C[C@H]3O[C@@]4(CC[C@H]3C)O[C@H]([C@H](C)C(=O)c3ccc[nH]3)[C@H](C)C[C@H]4C)nc2c1C(=O)O was tested, and the L1 promoter activity (concentration (uM unless unit written): 0.75, treatment time: 6 h) was 57.4 ± 16, the L1 promoter activity (concentration (uM unless unit written): 0.75, treatment time: 24 h) was 57.4 ± 4.2 and the L1 promoter activity (concentration (uM unless unit written): 1.5, treatment time: 6 h) was 52.4 ± 8.8. The L1 promoter activity [3] was 54.4 ± 4.2.
With NS(=O)(=O)c1cc(C(=O)O)c(NCc2ccco2)cc1Cl [Furosemide] the L1 promoter activity [10] was 104 ± 28, the L1 promoter activity [11] was 103 ± 24 and the L1 promoter activity [12] was 97.3 ± 11. The L1 promoter activity [13] was 96.2 ± 8.4, the L1 promoter activity [6] was 96.9 ± 5.2 and the L1 promoter activity [7] was 91.2 ± 6.5. It also gave an L1 promoter activity [8] of 89.1 ± 16 and an L1 promoter activity [9] of 60.4 ± 2.4.
With O=C(O)c1nn(Cc2ccc(Cl)cc2Cl)c2ccccc12 [Lonidamine] the L1 promoter activity [14] was 105 ± 12, the L1 promoter activity [15] was 93 ± 8 and the L1 promoter activity [10] was 87.9 ± 6.3. It also gave an L1 promoter activity [11] of 105 ± 9.1, an L1 promoter activity [16] of 99.9 ± 25 and an L1 promoter activity (concentration (uM unless unit written): 200, treatment time: 24 h) of 91.6 ± 9.5.
CC[C@@]1(O)C(=O)OCc2c1cc1n(c2=O)Cc2cc3ccccc3nc2-1 [Camptothecin] showed an L1 promoter activity (concentration (uM unless unit written): 0.05, treatment time: 6 h) of 110 ± 17, an L1 promoter activity (concentration (uM unless unit written): 0.05, treatment time: 24 h) of 142 ± 21 and an L1 promoter activity (concentration (uM unless unit written): 0.1, treatment time: 6 h) of 98.1 ± 16. It also gave an L1 promoter activity (concentration (uM unless unit written): 0.1, treatment time: 24 h) of 135 ± 21, an L1 promoter activity (concentration (uM unless unit written): 0.3, treatment time: 6 h) of 103 ± 22 and an L1 promoter activity (concentration (uM unless unit written): 0.3, treatment time: 24 h) of 152 ± 13.
In the case of CN1CCC(=C2c3ccccc3C=Cc3ccccc32)CC1 [Cyproheptadine hydrochloride sesquihydrate], the L1 promoter activity [14] is reported as 90.1 ± 17, the L1 promoter activity [15] is reported as 70.2 ± 14 and the L1 promoter activity [10] is reported as 74.7 ± 30. The L1 promoter activity [16] was 47.2 ± 12.
In the case of COC(=O)[C@H](c1ccccc1Cl)N1CCc2sccc2C1 [Clopidogrel], the L1 promoter activity [4] is reported as 96.7 ± 8.6, the L1 promoter activity [5] is reported as 113 ± 5.2 and the L1 promoter activity (concentration (uM unless unit written): 25, treatment time: 6 h) is reported as 98.5 ± 12. For the same compound, the L1 promoter activity (concentration (uM unless unit written): 25, treatment time: 24 h) was 113 ± 14, the L1 promoter activity [14] was 92.9 ± 6 and the L1 promoter activity [15] was 110 ± 9.2. It also gave an L1 promoter activity [10] of 84.6 ± 4.5 and an L1 promoter activity [11] of 107 ± 12.
For CC[C@H](C)C(=O)O[C@H]1C[C@H](O)C=C2C=C[C@H](C)[C@H](CC[C@@H](O)C[C@@H](O)CC(=O)O)[C@H]21 [Pravastatin], the L1 promoter activity [1] was 130 ± 8.2 and the L1 promoter activity [2] was 102 ± 7.9.
In the case of CC(C)(C(=O)c1cccnc1)c1cccnc1 [Metyrapone], the L1 promoter activity (concentration (uM unless unit written): 125, treatment time: 6 h) is reported as 121 ± 7.4, the L1 promoter activity (concentration (uM unless unit written): 125, treatment time: 24 h) is reported as 111 ± 11 and the L1 promoter activity [12] is reported as 142 ± 18. For the same compound, the L1 promoter activity [13] was 121 ± 11, the L1 promoter activity [6] was 127 ± 3.5 and the L1 promoter activity [7] was 135 ± 14.
In the case of C=CCCC(=O)O [4-Pentenoic acid], the L1 promoter activity (concentration (uM unless unit written): 25000, treatment time: 6 h) is reported as 102 ± 2.3, the L1 promoter activity (concentration (uM unless unit written): 25000, treatment time: 24 h) is reported as 28.2 ± 0.94 and the L1 promoter activity (concentration (uM unless unit written): 50000, treatment time: 6 h) is reported as 99.1 ± 4.5. It also gave an L1 promoter activity (concentration (uM unless unit written): 50000, treatment time: 24 h) of 22.5 ± 1.7, an L1 promoter activity (concentration (uM unless unit written): 100000, treatment time: 6 h) of 101 ± 26 and an L1 promoter activity (concentration (uM unless unit written): 100000, treatment time: 24 h) of 25.8 ± 2.7.
For COc1ccc2c(c1)c(CC(=O)O)c(C)n2C(=O)c1ccc(Cl)cc1 [Indometacin], the L1 promoter activity [12] was 99.1 ± 10, the L1 promoter activity [13] was 83 ± 11 and the L1 promoter activity [6] was 92.6 ± 13. For the same compound, the L1 promoter activity [7] was 59.3 ± 6.8 and the L1 promoter activity [8] was 67.2 ± 10.
